Test results as given in PMC11589570, “Critical assessment of LC3/GABARAP ligands used for degrader development and ligandability of LC3/GABARAP binding pockets” (Nature Communications, 2024).
“And” between values parts separate entries of the source, which are not always exact repeats. Identical values can stand only once.

Assays:
Assay type in all cases: binding
LC3A = LC3A (Homo sapiens, UniProt Q9H492); assay: FP assay with Cy5-labelled p62 LIR tracer (protein titration and tracer displacement); conditions: for FP assay result (normalised FP signal): replicates, listed as TH152
LC3B = LC3B (Homo sapiens, UniProt Q9GZQ8); assay: as above; conditions: replicates, listed as TH152
[1] = system: LC3/GABARAPs (human Atg8 family); assay: FP assay with Cy5-labelled p62 LIR tracer, statements on all LC3/GABARAPs

CCCCCCC(Sc1nc(Cl)cc(Nc2nc(-c3ccc(C(=O)O)cc3)cs2)n1)C(=O)O (stereo not drawn) [compound 21]
% tracer bound @LC3A (LC3A; LC3A tracer displacement, normalized on p62-LIR positive control): 26%
FP assay result (normalised FP signal) (LC3A; log10 concentration [M] -3.5): 16.9522 and 16.2308 and 9.017 and 3.246
FP assay result (normalised FP signal) (LC3A; log10 concentration [M] -4): 23.8052 and 27.7728 and 15.8702 and 10.8206
FP assay result (normalised FP signal) (LC3A; log10 concentration [M] -4.5): 40.3968 and 45.4463 and 36.0685 and 29.5762
FP assay result (normalised FP signal) (LC3A; log10 concentration [M] -5): 79.7115 and 85.4824 and 71.4157 and 74.3012
FP assay result (normalised FP signal) (LC3A; log10 concentration [M] -5.5): 90.532 and 94.4995 and 92.3354 (2×)
FP assay result (normalised FP signal) (LC3A; log10 concentration [M] -6): 102.435 and 103.156 and 95.2209 and 98.4671
FP assay result (normalised FP signal) (LC3A; log10 concentration [M] -6.5): 94.8602 and 102.795 and 92.3354 and 90.8927
FP assay result (normalised FP signal) (LC3A; log10 concentration [M] -7): 102.074 and 100.271 and 99.1885 and 98.4671
FP assay result (normalised FP signal) (LC3A; log10 concentration [M] -7.5): 103.877 and 100.271 and 96.6637 and 94.4995
FP assay result (normalised FP signal) (LC3A; log10 concentration [M] -8): 101.353 (2×) and 90.1713 and 94.4995
FP assay result (normalised FP signal) (LC3A; log10 concentration [M] -8.5): 95.9423 and 95.2209 and 93.4175 and 99.9098
FP assay result (normalised FP signal) (LC3B; log10 concentration [M] -3.5): 5.227 and 1.651 and 6.602 and 11.5543
FP assay result (normalised FP signal) (LC3B; log10 concentration [M] -4): 15.956 and 18.4319 and 23.3838 and 18.9821
FP assay result (normalised FP signal) (LC3B; log10 concentration [M] -4.5): 38.7895 and 39.3398 and 43.1912 and 47.3177
FP assay result (normalised FP signal) (LC3B; log10 concentration [M] -5): 78.6795 and 79.2297 and 89.1334 and 88.033
FP assay result (normalised FP signal) (LC3B; log10 concentration [M] -5.5): 90.5089 and 85.8322 and 98.2118 and 94.9106
FP assay result (normalised FP signal) (LC3B; log10 concentration [M] -6): 92.7098 and 95.4608 and 102.063 and 101.238
FP assay result (normalised FP signal) (LC3B; log10 concentration [M] -6.5): 91.0591 and 89.9587 and 97.9367 and 96.8363
FP assay result (normalised FP signal) (LC3B; log10 concentration [M] -7): 91.6094 and 98.762 and 103.439 and 102.063
FP assay result (normalised FP signal) (LC3B; log10 concentration [M] -7.5): 90.2338 and 98.4869 and 99.3122 and 100.138
FP assay result (normalised FP signal) (LC3B; log10 concentration [M] -8): 98.762 and 98.2118 and 100.413 and 102.613
FP assay result (normalised FP signal) (LC3B; log10 concentration [M] -8.5): 94.9106 and 100.413 (2×) and 103.439
interaction with LC3/GABARAP family members in FP displacement assay [1]: interacted with all LC3/GABARAPs
